target: T1, MAGL (Homo sapiens, UniProt Q99685); assay: In vitro competitive activity-based protein profiling (PC3 human cell membrane proteomes); type: biochemical; settings: not given
T1 construct: PC3 human cell membrane proteomes; endogenous in cells; host or cells: PC3 human cells (membrane proteome)
T1 sequence (Q99685 1-303): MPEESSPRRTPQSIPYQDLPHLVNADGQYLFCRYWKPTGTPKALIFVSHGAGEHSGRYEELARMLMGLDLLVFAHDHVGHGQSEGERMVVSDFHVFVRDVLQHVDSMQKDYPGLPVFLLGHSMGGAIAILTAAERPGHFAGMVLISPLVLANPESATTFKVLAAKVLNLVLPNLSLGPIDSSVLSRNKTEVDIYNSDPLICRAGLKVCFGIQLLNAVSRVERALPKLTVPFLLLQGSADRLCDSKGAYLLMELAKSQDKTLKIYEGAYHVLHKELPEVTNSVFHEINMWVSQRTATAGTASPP
Description: PC3 human cell membrane proteomes (50 µL, 2.0 mg/mL total protein concentration) were preincubated with varying concentrations of inhibitors at 37° C. After 30 min, the ABPP probe JW912-Bodipy (1.0 µL, 50 µM in DMSO) was added and the mixture was incubated for 30 min at room temperature. Reactions were quenched with SDS loading buffer (15 μL-4×) and run on SDS-PAGE. Following gel imaging, serine hydrolase activity was determined by measuring fluorescent intensity of gel bands corresponding to MAGL using ImageJ 1.43u software. Intensities were converted to percent enzyme activity by normalizing to DMSO controls. IC50 values were determined by fitting percent enzyme activities to a non-linear regression, 4-parameter, sigmoidal dose response function in Prism GraphPad.

Compared with `O=C(Nc1ccc(C(F)(F)F)nc1)C1CC12CCN(C(=O)OC(C(F)(F)F)C(F)(F)F)CC2` (single isomer, unassigned) [Example 79, 1,1,1,3,3,3-hexafluoropropan-2-yl (R or S)-1-((6-(trifluoromethyl)pyridin-3-yl)carbamoyl)-6-azaspiro[2.5]octane-6-carboxylate], `Cc1ccc(NC(=O)C2CC23CCN(C(=O)OC(C(F)(F)F)C(F)(F)F)CC3)cn1` (single isomer, unassigned) [Example 82, 1,1,1,3,3,3-hexafluoropropan-2-yl (R or S)-1-((6-methylpyridin-3-yl)carbamoyl)-6-azaspiro[2.5]octane-6-carboxylate] is higher in “MAGL % inh. 1 µM (human PC3)” value: 50% for the first, 100% for the second.

`O=C(NCc1cccnc1)C1CC12CCN(C(=O)OC(C(F)(F)F)C(F)(F)F)CC2` (single isomer, unassigned) [Example 88, 1,1,1,3,3,3-hexafluoropropan-2-yl (R or S)-1-((pyridin-3-ylmethyl)carbamoyl)-6-azaspiro[2.5]octane-6-carboxylate] and `O=C(Nc1cnccn1)C1CC12CCN(C(=O)OC(C(F)(F)F)C(F)(F)F)CC2` (single isomer, unassigned) [Example 55, 1,1,1,3,3,3-hexafluoropropan-2-yl (R or S)-1-(pyrazin-2-ylcarbamoyl)-6-azaspiro[2.5]octane-6-carboxylate] are the same in “MAGL % inh. 1 µM (human PC3)” value: 100% for the first, 100% for the second.

Going from `Cc1ncccc1NC(=O)C1CC12CCN(C(=O)OC(C(F)(F)F)C(F)(F)F)CC2` (single isomer, unassigned) [Example 70, 1,1,1,3,3,3-hexafluoropropan-2-yl (R or S)-1-((2-methylpyridin-3-yl)carbamoyl)-6-azaspiro[2.5]octane-6-carboxylate] to `O=C(Nc1cccnc1C(F)(F)F)C1CC12CCN(C(=O)OC(C(F)(F)F)C(F)(F)F)CC2` (single isomer, unassigned) [Example 85, 1,1,1,3,3,3-hexafluoropropan-2-yl (R or S)-1-((2-(trifluoromethyl)pyridin-3-yl)carbamoyl)-6-azaspiro[2.5]octane-6-carboxylate], the “MAGL % inh. 1 µM (human PC3)” value rises from 75% to 100%.

`O=C(NC(=O)C1CC12CCN(C(=O)OC(C(F)(F)F)C(F)(F)F)CC2)c1ccccc1` (single isomer, unassigned) [Example 94, 1,1,1,3,3,3-hexafluoropropan-2-yl (R or S)-1-(benzoylcarbamoyl)-6-azaspiro[2.5]octane-6-carboxylate] and `O=C(Nc1ccccn1)C1CC12CCN(C(=O)OC(C(F)(F)F)C(F)(F)F)CC2` (single isomer, unassigned) [Example 49, 1,1,1,3,3,3-hexafluoropropan-2-yl (R or S)-1-(pyridin-2-ylcarbamoyl)-6-azaspiro[2.5]octane-6-carboxylate] are the same in “MAGL % inh. 1 µM (human PC3)” value: 100% for the first, 100% for the second.

First: O=C(OC(C(F)(F)F)C(F)(F)F)N1CCC2(CC1)CC2C(=O)N1CCc2ncncc2C1 (single isomer, unassigned) [Example 61, 1,1,1,3,3,3-hexafluoropropan-2-yl (R or S)-1-(5,6,7,8-tetrahydropyrido[4,3-d]pyrimidine-6-carbonyl)-6-azaspiro[2.5]octane-6-carboxylate]
Second: O=C(OC(C(F)(F)F)C(F)(F)F)N1CCC2(CC1)CC2C(=O)N1CCc2nc(C3CC3)ncc2C1 (single isomer, unassigned) [Example 64, 1,1,1,3,3,3-hexafluoropropan-2-yl (R or S)-1-(2-cyclopropyl-5,6,7,8-tetrahydropyrido[4,3-d]pyrimidine-6-carbonyl)-6-azaspiro[2.5]octane-6-carboxylate]
The “MAGL % inh. 1 µM (human PC3)” value of the first is lower: 75% for the first, 100% for the second.

Compared with `O=C(Nc1cncnc1)C1CC12CCN(C(=O)OC(C(F)(F)F)C(F)(F)F)CC2` (single isomer, unassigned) [Example 97, 1,1,1,3,3,3-hexafluoropropan-2-yl (R or S)-1-(pyrimidin-5-ylcarbamoyl)-6-azaspiro[2.5]octane-6-carboxylate], `O=C(Nc1cncc(Cl)c1)C1CC12CCN(C(=O)OC(C(F)(F)F)C(F)(F)F)CC2` (single isomer, unassigned) [Example 67, 1,1,1,3,3,3-hexafluoropropan-2-yl (R or S)-1-((5-chloropyridin-3-yl)carbamoyl)-6-azaspiro[2.5]octane-6-carboxylate] is higher in “MAGL % inh. 1 µM (human PC3)” value: 90% for the first, 100% for the second.

`O=C(NC(=O)C1CC12CCN(C(=O)OC(C(F)(F)F)C(F)(F)F)CC2)C1CCCCC1` (single isomer, unassigned) [Example 91, 1,1,1,3,3,3-hexafluoropropan-2-yl (R or S)-1-((cyclohexanecarbonyl)carbamoyl)-6-azaspiro[2.5]octane-6-carboxylate] and `O=C(Nc1cccc(C(F)(F)F)n1)C1CC12CCN(C(=O)OC(C(F)(F)F)C(F)(F)F)CC2` (single isomer, unassigned) [Example 73, 1,1,1,3,3,3-hexafluoropropan-2-yl (R or S)-1-((6-(trifluoromethyl)pyridin-2-yl)carbamoyl)-6-azaspiro[2.5]octane-6-carboxylate] are the same in “MAGL % inh. 1 µM (human PC3)” value: 100% for the first, 100% for the second.

Compared with `O=C(Nc1cnc(C(F)(F)F)nc1)C1CC12CCN(C(=O)OC(C(F)(F)F)C(F)(F)F)CC2` (single isomer, unassigned) [Example 100, 1,1,1,3,3,3-hexafluoropropan-2-yl (R or S)-1-((2-(trifluoromethyl)pyrimidin-5-yl)carbamoyl)-6-azaspiro[2.5]octane-6-carboxylate], `O=C(OC(C(F)(F)F)C(F)(F)F)N1CCC2(CC1)CC2C(=O)N1CCn2cc(C(F)(F)F)nc2C1` (single isomer, unassigned) [Example 52, 1,1,1,3,3,3-hexafluoropropan-2-yl (R or S)-1-(2-(trifluoromethyl)-5,6,7,8-tetrahydroimidazo[1,2-a]pyrazine-7-carbonyl)-6-azaspiro[2.5]octane-6-carboxylate] is higher in “MAGL % inh. 1 µM (human PC3)” value: 75% for the first, 100% for the second.

In the case of `CN(C(=O)C1CC12CCN(C(=O)OC(C(F)(F)F)C(F)(F)F)CC2)c1ccccn1` (single isomer, unassigned) [Example 46, 1,1,1,3,3,3-hexafluoropropan-2-yl (R or S)-1-(methyl(pyridin-2-yl)carbamoyl)-6-azaspiro[2.5]octane-6-carboxylate], the “MAGL % inh. 1 µM (human PC3)” value was 100%.

system: not listed separately; assay: Kinetic solubility in PBS; type: physicochemical; settings: aqueous buffer, kinetic from dmso stock, PBS pH 2.0, RT, read-out: pH 2 Solubility (kinetic)
Description: The kinetic solubility of test articles was determined in PBS at pH 2.0 and pH 7.4 in duplicate. A stock solution of test compound in DMSO (10 mM) was incubated at RT for 2 hours with shaking at 1,100 RPM. The sample was then filtered using a vacuum manifold, diluted, and analyzed by LC-MS/MS. Chromatographic conditions: Phenomenex Synergi 4μ Hydro-PR 80A column (2.0×30 mm) coupled with pre-guard column; mobile phase=0.1% formic acid in acetonitrile and 0.1% formic acid in water; flowrate=0.65 mL/min; column temperature=40° C.; injection volume: 3 μL.
Mass conditions: Turbo spray ion source; ESI ionization model; MRM scan type; Collison gas=6 L/min; Curtain gas=30 L/min; Nebulize gas=50 L/min; Auxiliary gas=50 L/min; Temperature=500 degrees C.; Ion spray voltage=+5500 v (positive MRM).
The filtered solution was analyzed and quantified against a standard of known concentration in DMSO using UPLC coupled with mass spectral peak identification and quantitation. Solubility values of the test articles were calculated using Microsoft Excel as follows (DF is the dilution factor): […]

With `O=C(NC(=O)C1CC12CCN(C(=O)OC(C(F)(F)F)C(F)(F)F)CC2)C1CCCCC1` (single isomer, unassigned) [Example 90, 1,1,1,3,3,3-hexafluoropropan-2-yl (R or S)-1-((cyclohexanecarbonyl)carbamoyl)-6-azaspiro[2.5]octane-6-carboxylate] the solubility kinetic at 2 h was 33 µM.

same assay, conditions: aqueous buffer, kinetic from dmso stock, PBS pH 7.4, RT, read-out: pH 7.4 Solubility (kinetic)

Compared with `O=C(Nc1ccnc(C(F)(F)F)n1)[C@H]1CC12CCN(C(=O)OC(C(F)(F)F)C(F)(F)F)CC2` (single isomer, unassigned) [Example 17], `O=C(Nc1cncc(Cl)c1)C1CC12CCN(C(=O)OC(C(F)(F)F)C(F)(F)F)CC2` (single isomer, unassigned) [Example 66, 1,1,1,3,3,3-hexafluoropropan-2-yl (R or S)-1-((5-chloropyridin-3-yl)carbamoyl)-6-azaspiro[2.5]octane-6-carboxylate] is 120-fold higher in solubility kinetic at 2 h: 0.07 µM for the first, 8.74 µM for the second.

From US11434222B2, “MAGL inhibitors” (H. LUNDBECK A/S, priority 2020, dated 2022)
